Measured values from patent US5254554A, “3-hydroxy-substituted-1-phenyl-1,4-dihydro-4-oxopyridazines and derivatives, and use” (Pierre Fabre Medicament, priority 1991, dated 1993).

Legend:
[1] = Anxiolytic activity, Vogel test; format: in vivo; details: 30 mg/kg per os
Method: (§1) Results obtained on the products of the present invention are presented in the following and are expressed in percentage of increase by reference to an untreated control, with the product being administered per os at a dose of 30 mg/kg.

[2] = Anxiolytic activity, X-labyrinth test (elevated plus maze); format: in vivo; details: 30 mg/kg per os
Method: as §1

[3] = target: T1, Lipoxygenase (Rattus norvegicus, UniProt P12527); assay: Inhibition of Lipoxygenase: inhibition of leukotriene B4 production by polymorphonuclear cells stimulated by Ionophore A 23 187; format: cell-based; details: polymorphonuclear peritoneal cell suspensions
T1 construct: suspensions of polymorphonuclear peritonea of rates stimulated by means of the Ionophore A 23 187; endogenous in cells; host or cells: rat peritoneal polymorphonuclear cells
T1 sequence (P12527 1-673): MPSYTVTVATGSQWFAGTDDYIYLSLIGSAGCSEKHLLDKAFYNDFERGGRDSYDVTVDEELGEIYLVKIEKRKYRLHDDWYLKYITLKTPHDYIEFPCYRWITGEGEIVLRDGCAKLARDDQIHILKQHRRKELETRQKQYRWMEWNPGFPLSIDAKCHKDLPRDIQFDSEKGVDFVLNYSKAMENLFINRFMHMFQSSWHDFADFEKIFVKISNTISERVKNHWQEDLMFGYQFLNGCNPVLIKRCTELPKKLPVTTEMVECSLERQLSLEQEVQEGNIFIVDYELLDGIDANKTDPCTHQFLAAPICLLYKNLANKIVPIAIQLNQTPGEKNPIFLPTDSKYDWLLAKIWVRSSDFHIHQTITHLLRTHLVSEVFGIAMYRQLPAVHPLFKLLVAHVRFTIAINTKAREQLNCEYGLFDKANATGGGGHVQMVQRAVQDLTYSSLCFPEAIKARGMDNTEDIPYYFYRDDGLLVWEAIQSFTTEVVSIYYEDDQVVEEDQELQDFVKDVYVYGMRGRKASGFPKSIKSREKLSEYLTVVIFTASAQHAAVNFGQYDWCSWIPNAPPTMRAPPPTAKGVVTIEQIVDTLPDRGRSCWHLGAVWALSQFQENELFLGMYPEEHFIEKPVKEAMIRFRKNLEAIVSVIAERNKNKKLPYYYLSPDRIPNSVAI

| SMILES | Vogel test: percentage of increase by reference to an untreated control [1] | X-labyrinth test: percentage of increase by reference to an untreated control [2] | IC50 [3] |
| --- | --- | --- | --- |
| COc1nn(-c2cccc(C(F)(F)F)c2)c(C)cc1=O [Compound 2, 1-Metatrifluoromethylphenyl-1,4-dihydro-3-methoxy-4-oxo-6-methylpyridazine] | 95% | 95% | – |
| C=CCOc1nn(-c2cccc(C(F)(F)F)c2)c(C)cc1=O [Compound 5, 1-Metatrifluoromethylphenyl-1,4-dihydro-3-allyloxy-4-oxo-6-methylpyridazine] | 48% | – | – |
| Cc1cc(=O)c(OCc2ccccc2)nn1-c1cccc(C(F)(F)F)c1 [Compound 6, 1-Metatrifluoromethylphenyl-1,4-dihydro-3-benzyloxy-4-oxo-6-methylpyridazine] | 98% | 18% | 1250 nM |
| COc1nn(-c2cccc(C(F)(F)F)c2)ccc1=O [Compound 9, 1-Metatrifluoromethylphenyl-1,4-dihydro-3-methoxy-4-oxopyridazine] | 52% | 165% | – |
| O=c1ccn(-c2cccc(C(F)(F)F)c2)nc1OCc1ccccc1 [Compound 10, 1-Metatrifluoromethylphenyl-1,4-dihydro-3-benzyloxy-4-oxopyridazine] | 38% | – | 25000 nM |
| Cc1cc(=O)c(OCc2ccc3ccccc3n2)nn1-c1cccc(C(F)(F)F)c1 [Compound 11, 1-Metatrifluoromethylphenyl-1,4-dihydro-3-(2-quinolylmethoxy)-4-oxo-6-methylpyridazine] | – | – | 1100 nM |
